Measured values from patent US20250197372A1 (priority 2020, published 2025).
pIC50: −log10 of the molar value.

How the values were obtained:
Format in all cases: biochemical
[1] = molecular target: rat maltase (partially purified alpha-glucosidase from intestinal rat powder); assay: Intestinal alpha-glucosidase assay, maltose substrate (Glucose GO Kit)
Summary of the method: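 Partially purified alpha-glucosidase from rat intestinal powder was preincubated 60 min at 37 °C with serial compound dilutions, then given maltose or sucrose and incubated 30 min at 37 °C.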

[2] = molecular target: T1, recombinant human GBA (beta-glucocerebrosidase) (Homo sapiens, UniProt P04062); assay: Beta-glucocerebrosidase (GBA, glucosylceramidase) assay (4-methylumbelliferyl-beta-D-pyranoside substrate, fluorescence)
T1 sequence (P04062 40-536): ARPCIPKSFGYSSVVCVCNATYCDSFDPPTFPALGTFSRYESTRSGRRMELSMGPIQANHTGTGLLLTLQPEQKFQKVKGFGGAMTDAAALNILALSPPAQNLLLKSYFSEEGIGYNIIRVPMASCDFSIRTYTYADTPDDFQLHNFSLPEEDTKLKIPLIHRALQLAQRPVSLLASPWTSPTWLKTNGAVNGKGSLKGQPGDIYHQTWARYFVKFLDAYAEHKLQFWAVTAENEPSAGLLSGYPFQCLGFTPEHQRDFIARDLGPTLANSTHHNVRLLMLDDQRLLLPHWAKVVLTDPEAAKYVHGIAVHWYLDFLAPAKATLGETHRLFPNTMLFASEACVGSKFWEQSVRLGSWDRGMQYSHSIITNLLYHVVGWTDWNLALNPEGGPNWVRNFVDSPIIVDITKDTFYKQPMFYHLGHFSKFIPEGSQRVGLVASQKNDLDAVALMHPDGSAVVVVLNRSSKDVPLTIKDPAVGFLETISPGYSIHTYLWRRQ
Summary of the method: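 IC50 by four-parameter fit of percent inhibition, with product fluorescence (365/440 nm) read after a glycine/NaOH pH 10 stop. Compound and commercial recombinant human enzyme were incubated 60 min at 37 °C before a further 60 min at 37 °C with 4-methylumbelliferyl-beta-D-pyranoside substrate.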

[3] = molecular target: T2, recombinant alpha-glucosidase II (murine full-length glucosidase II, alpha and beta subunits, Glu 2) (Mus musculus, UniProt Q8BHN3); assay: Alpha-glucosidase II assay (4-methylumbelliferyl-alpha-D-pyranoside substrate, fluorescence); conditions: Glucosidase 2; read-out: Glu2 IC50
T2 construct: made in house; host or cells: HEK-293T cells transduced with BacMam viruses (75% alpha, 25% beta); protein harvested from culture supernatant
T2 sequence (O08795 15-521): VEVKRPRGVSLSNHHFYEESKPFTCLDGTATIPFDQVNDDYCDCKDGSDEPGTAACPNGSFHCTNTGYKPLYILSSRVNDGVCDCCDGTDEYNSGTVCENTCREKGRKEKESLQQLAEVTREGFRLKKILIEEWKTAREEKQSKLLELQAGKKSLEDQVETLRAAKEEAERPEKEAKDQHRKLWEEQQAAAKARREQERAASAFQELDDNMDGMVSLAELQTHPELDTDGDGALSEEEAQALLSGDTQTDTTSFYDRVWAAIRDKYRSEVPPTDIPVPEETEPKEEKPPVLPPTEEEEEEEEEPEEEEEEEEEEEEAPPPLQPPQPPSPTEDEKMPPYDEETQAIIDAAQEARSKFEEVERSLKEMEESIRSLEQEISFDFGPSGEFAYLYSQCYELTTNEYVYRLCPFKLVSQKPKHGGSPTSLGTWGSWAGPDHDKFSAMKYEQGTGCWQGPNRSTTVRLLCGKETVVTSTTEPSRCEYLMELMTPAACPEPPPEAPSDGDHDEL
T2 sequence (Q8BHN3 33-944): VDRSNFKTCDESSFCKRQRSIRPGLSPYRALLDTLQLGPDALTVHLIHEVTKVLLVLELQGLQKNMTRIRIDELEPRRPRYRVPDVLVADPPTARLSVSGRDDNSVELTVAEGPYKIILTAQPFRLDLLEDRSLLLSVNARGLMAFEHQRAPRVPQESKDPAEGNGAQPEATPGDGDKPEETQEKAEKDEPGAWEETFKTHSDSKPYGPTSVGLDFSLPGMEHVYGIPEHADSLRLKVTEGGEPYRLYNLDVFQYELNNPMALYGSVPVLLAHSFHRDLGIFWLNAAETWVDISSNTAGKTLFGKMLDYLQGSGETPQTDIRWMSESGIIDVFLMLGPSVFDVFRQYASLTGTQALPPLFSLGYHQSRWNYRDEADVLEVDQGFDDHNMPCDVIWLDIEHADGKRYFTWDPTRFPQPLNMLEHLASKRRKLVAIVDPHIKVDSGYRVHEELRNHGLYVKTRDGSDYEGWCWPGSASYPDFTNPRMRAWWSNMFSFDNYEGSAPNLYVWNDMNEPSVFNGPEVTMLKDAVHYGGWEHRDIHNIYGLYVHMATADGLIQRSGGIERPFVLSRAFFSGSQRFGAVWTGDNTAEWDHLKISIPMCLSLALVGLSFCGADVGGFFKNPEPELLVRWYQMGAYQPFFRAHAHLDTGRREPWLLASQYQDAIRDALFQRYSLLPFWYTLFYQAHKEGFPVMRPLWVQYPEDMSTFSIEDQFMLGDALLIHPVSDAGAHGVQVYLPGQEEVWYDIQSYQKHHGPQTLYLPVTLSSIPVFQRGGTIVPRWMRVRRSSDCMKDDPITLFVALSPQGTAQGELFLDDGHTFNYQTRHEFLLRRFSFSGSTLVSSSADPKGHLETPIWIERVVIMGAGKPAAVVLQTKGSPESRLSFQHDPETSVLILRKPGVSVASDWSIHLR

[4] = molecular target: recombinant human GAA (acid alpha-glucosidase) (Homo sapiens, UniProt P10253); assay: Acid alpha-glucosidase (GAA) assay (4-methylumbelliferyl-alpha-D-pyranoside substrate, fluorescence)
Summary of the method: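 IC50 from 4-PL curve fit of percent inhibition, based on fluorescence (365/440 nm) of released methylumbelliferone relative to uninhibited enzyme. Compound dilutions and human GAA incubated 60 min, 37 °C, before 20 min substrate reaction at 37 °C, quenched at pH 10.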

Row | SMILES | pIC50 [1] | pIC50 [2] | pIC50 [3] | pIC50 [4]
1 | [N-]=[N+]=Nc1ccc(NCCn2cc(CCN3C[C@H](O)[C@@H](O)[C@H](O)[C@H]3CO)nn2)c([N+](=O)[O-])c1 [Compound 1272, (2R,3R,4R,5S)-1-[2-(1-{2-[(4-azido-2-nitrophenyl)amino]ethyl}-1H-1,2,3-triazol-4-yl)ethyl]-2-(hydroxymethyl)piperidine-3,4,5-triol] | 6.62 | 5.39 | 7.41 | 6.10
2 | [N-]=[N+]=Nc1ccc(NCCN2CCN(CCN3C[C@H](O)[C@@H](O)[C@H](O)[C@H]3CO)CC2)c([N+](=O)[O-])c1 [Compound 1273, (2R,3R,4R,5S)-1-[2-(4-{2-[(4-azido-2-nitrophenyl)amino]ethyl}piperazin-1-yl)ethyl]-2-(hydroxymethyl)piperidine-3,4,5-triol] | 6.19 | 5.53 | 6.26 | 4.81
3 | [N-]=[N+]=Nc1ccc(NCCS(=O)(=O)CCCN2C[C@H](O)[C@@H](O)[C@H](O)[C@H]2CO)c([N+](=O)[O-])c1 [Compound 1274, (2R,3R,4R,5S)-1-(3-{2-[(4-azido-2-nitrophenyl)amino]ethane-sulfonyl}propyl)-2-(hydroxymethyl)piperidine-3,4,5-triol] | 6.82 | 5.52 | 7.32 | 6.87
4 | [N-]=[N+]=Nc1ccc(NCCNS(=O)(=O)NCCN2C[C@H](O)[C@@H](O)[C@H](O)[C@H]2CO)c([N+](=O)[O-])c1 [Compound 1275, (2R,3R,4R,5S)-1-{2-[({2-[(4-azido-2-nitrophenyl)amino]ethyl}sulfamoyl)amino]ethyl}-2-(hydroxymethyl)piperidine-3,4,5-triol] | 6.54 | 5.66 | 6.44 | 6.25
5 | [N-]=[N+]=Nc1ccc(NCCNC(=O)NCCN2C[C@H](O)[C@@H](O)[C@H](O)[C@H]2CO)c([N+](=O)[O-])c1 [Compound 1276, 1-{2-[(4-azido-2-nitrophenyl)amino]ethyl}-3-{2-[(2R,3R,4R,5S)-3,4,5-trihydroxy-2-(hydroxymethyl)piperidin-1-yl]ethyl}urea] | 7.31 | 7.21 | 7.41 | 6.60
6 | Nc1ccc(NCCCCCCCCN2C[C@H](O)[C@@H](O)[C@H](O)[C@H]2CO)c([N+](=O)[O-])c1Cl [Compound 1277, (2R,3R,4R,5S)-1-{8-[(4-amino-3-chloro-2-nitrophenyl)amino]octyl} 2-(hydroxymethyl)piperidine-3,4,5-triol] | 7.28 | > 8.00 | > 9.00 | > 8.00
7 | CC#Cc1ccc(NCCCCCCN2C[C@H](O)[C@@H](O)[C@H](O)[C@H]2CO)c([N+](=O)[O-])c1 [Compound 1290, (2R,3R,4R,5S)-2-(hydroxymethyl)-1-(6-{[2-nitro-4-(prop-1-yn-1-yl)phenyl]amino}hexyl)piperidine-3,4,5-triol] | > 8.00 | 6.76 | 8.92 | 7.68
8 | [N-]=[N+]=Nc1ccc(NCCCCCCN2C[C@H](O)[C@@H](O)[C@H](O)[C@H]2CO)c(C(N)=O)c1 [Compound 1296, 5-azido-2-({6-[(2R,3R,4R,5S)-3,4,5-trihydroxy-2-(hydroxymethyl)piperidin-1-yl]hexyl}amino)benzamide] | > 8.00 | 5.49 | 7.54 | 6.91
9 | [N-]=[N+]=Nc1ccc(NCCCCCCN2C[C@H](O)[C@@H](O)[C@H](O)[C@H]2CO)c(C(=O)O)c1 [Compound 1297, 5-azido-2-({6-[(2R,3R,4R,5S)-3,4,5-trihydroxy-2-(hydroxymethyl)piperidin-1-yl]hexyl}amino)benzoic acid] | 6.77 | 5.45 | 7.01 | 6.34
10 | N#CCc1ccc(NCCCCCCN2C[C@H](O)[C@@H](O)[C@H](O)[C@H]2CO)c([N+](=O)[O-])c1 [Compound 1299, 2-[3-nitro-4-({6-[(2R,3R,4R,5S)-3,4,5-trihydroxy-2-(hydroxymethyl)piperidin-1-yl]hexyl}amino)phenyl]acetonitrile] | 8.30 | 5.47 | 7.77 | 7.49
11 | N#Cc1ccc(NCCCCCCN2C[C@H](O)[C@@H](O)[C@H](O)[C@H]2CO)c([N+](=O)[O-])c1 [Compound 1304, 3-nitro-4-({6-[(2R,3R,4R,5S)-3,4,5-trihydroxy-2-(hydroxymethyl)piperidin-1-yl]hexyl}amino)benzonitrile] | 7.77 | 7.37 | 7.66 | 7.37
12 | COc1ccc(-c2ccc(CCCN3C[C@H](O)[C@@H](O)[C@H](O)[C@H]3CO)cc2)cc1 [Compound 1305, (2R,3R,4R,5S)-2-(hydroxymethyl)-1-(3-{4′-methoxy-[1,1′-biphenyl]-4-yl}propyl)piperidine-3,4,5-triol] | > 8.00 | 5.10 | > 9.00 | 6.30
13 | COc1ccc(-c2ccc(CN3C[C@H](O)[C@@H](O)[C@H](O)[C@H]3CO)cc2)cc1 [Compound 1306, (2R,3R,4R,5S)-2-(hydroxymethyl)-1-({4′-methoxy-[1,1′-biphenyl]-4-yl}methyl)piperidine-3,4,5-triol] | > 8.00 | < 4.00 | 4.36 | 5.34
14 | COCCc1ccc(CCCN2C[C@H](O)[C@@H](O)[C@H](O)[C@H]2CO)cc1 [Compound 1308, (2R,3R,4R,5S)-2-(hydroxymethyl)-1-{3-[4-(2-methoxyethyl)phenyl]propyl}piperidine-3,4,5-triol] | 7.06 | 4.29 | 6.90 | 5.77
15 | COc1ccc(CCCCCCCN2C[C@H](O)[C@@H](O)[C@H](O)[C@H]2CO)cc1 [Compound 1309, (2R,3R,4R,5S)-2-(hydroxymethyl)-1-[7-(4-methoxyphenyl)heptyl]piperidine-3,4,5-triol] | 7.66 | 5.63 | 7.43 | 6.58
16 | COc1ccc(CCCCCN2C[C@H](O)[C@@H](O)[C@H](O)[C@H]2CO)cc1 [Compound 1310, (2R,3R,4R,5S)-2-(hydroxymethyl)-1-[5-(4-methoxyphenyl)pentyl]piperidine-3,4,5-triol] | > 8.00 | 4.77 | 7.11 | 5.93
17 | OC[C@@H]1[C@@H](O)[C@H](O)[C@@H](O)CN1CCCCCCCCC1CNCCO1 (stereo partly drawn) [Compound 1311, (2R,3R,4R,5S)-2-(hydroxymethyl)-1-[8-(morpholin-2-yl)octyl]piperidine-3,4,5-triol] | > 8.00 | 4.58 | 6.71 | 6.13
18 | Cc1cc(NCc2ccc(CN3C[C@H](O)[C@@H](O)[C@H](O)[C@H]3CO)cc2)cc(-c2ncco2)c1 [Compound 1315, (2R,3R,4R,5S)-2-(hydroxymethyl)-1-{[4-({[3-methyl-5-(1,3-oxazol-2-yl)phenyl]amino}methyl)phenyl]methyl}piperidine-3,4,5-triol] | 8.05 | < 4.00 | 6.04 | 6.36
19 | Cc1cc(NCc2ccc(CN3C[C@H](O)[C@@H](O)[C@H](O)[C@H]3CO)cc2)cc(-n2nccn2)c1 [Compound 1316, (2R,3R,4R,5S)-2-(hydroxymethyl)-1-{[4-({[3-methyl-5-(2H-1,2,3-triazol-2-yl)phenyl]amino}methyl)phenyl]methyl}piperidine-3,4,5-triol] | 8.22 | < 4.00 | 6.71 | 7.03
20 | Cc1cc(NCc2ccc(CN3C[C@H](O)[C@@H](O)[C@H](O)[C@H]3CO)cc2)cc(-c2ccco2)c1 [Compound 1317, (2R,3R,4R,5S)-1-{[4-({[3-(furan-2-yl)-5-methylphenyl]amino}methyl)phenyl]methyl}-2-(hydroxymethyl)piperidine-3,4,5-triol] | > 9.00 | 4.35 | 5.92 | 6.32
21 | Cc1cc(NCc2cccc(CN3C[C@H](O)[C@@H](O)[C@H](O)[C@H]3CO)n2)cc(-c2ncccn2)c1 [Compound 1322, (2R,3R,4R,5S)-2-(hydroxymethyl)-1-{[6-({[3-methyl-5-(pyrimidin-2-yl)phenyl]amino}methyl)pyridin-2-yl]methyl}piperidine-3,4,5-triol] | 6.41 | 4.00 | 4.49 | 5.96
